What was measured:
[1] = test system: relapsing-remitting MS (RR-MS) patients; assay: Prospective 2-year study of GA-treated RR-MS patients: ARR and EDSS; assay type: in vivo, human
Protocol: This is a prospective study in which sixty-two relapsing-remitting MS (RR-MS) patients treated with GA were classified clinically as GA-R (N=42) or GA-HR/NR (N=20) after 2 years of treatment. Cytokine levels, brain-derived neurotrophic factor (BDNF) levels, and T-cell proliferation to GA were analyzed at baseline, 3, 6, 9-12 and 24 months and assessed for their predictive value of clinical response after 2 years of treatment.
Sixty-two patients diagnosed with definite RR-MS (relapsing-remitting MS) according to the McDonald criteria (33) were included in the study. Following recruitment, the patients were treated with GA for at least 2 years. Subjects were closely followed up at the University of Medicine and Dentistry New Jersey (UMDNJ)-Robert Wood Johnson Medical School, University of Maryland Center for MS, the Gimbel MS Center, Teaneck, N.J. and the Carolina Medical Center-MS Center, Charlotte, N.C. Fifty patients were females with a mean age of 41±10.3 years and 12 were males with a mean age of 39.0±11.9 years. Patients had at least one relapse during the year prior to initiation of GA therapy (Table 2). After at least 2 years on GA therapy, patients were classified as GA-R (n=42) or GA-HR/NR (n=20) based on a clinical criteria more stringent than those recently reported in the literature. (34) A responder (R) is a patient with an annual relapse rate (ARR)<0.5 and no evidence of disease progression as measured by EDSS (expanded disability status scale). A hypo/non-responder (HR/NR) is a patient with an ARR>0.5 and/or with progression in the EDSS of at least 1 point sustained for 6 months (Table 3).
The patients were classified as GA-responders or hypo/non-responders after being treated with GA for at least 24 months, based on their ARR and progression in disability while on treatment (Tables 1 and 3). The mean disease duration was 8.3±6.1 years for the GA-R group and 12.2±8.2 years for GA-HR/NR group. The mean treatment duration was 26.4±6.6 months for the GA-R group and 26.1±5.9 months for the GA-HR/NR group.

IL-18 = IL-18 by ELISA in ex-vivo PBMC supernatant of GA-treated MS patients; assay type: cell-based, human; conditions: both groups
Protocol: Approximately 60 cc of blood was obtained by venipuncture from each MS patient pre-treatment and at successive time points during treatment (3 months, 6 months, 9-12 months and 24 months). PBMC were purified using Ficoll-Hypaque gradients as described in the supplier's protocol (ICN Biomedicals Inc. Ohio, USA). Samples from collaborating centers were sent via overnight FedEx™ delivery at room temperature and processed immediately upon arrival.
2×10^5 PBMC/well were seeded in 96 well U-bottom micro titer plate in the absence of antigen (unstimulated condition) (US) or the presence of GA at 40 and 100 μg/ml (Teva Pharmaceutical Industries, Ltd., Israel), tetanus toxoid (TT 5 μg) obtained from UMASS (University of Mass, Worcester, Mass.). The latter was used as a control antigen. Supernatants were collected from cultured cells at days 1, 3 and 5 for various assays. After 5 days, 1 μCi ^3H-thymidine was added. […] Incorporated radioactivity was measured using a liquid Scintillation counter (Wallac MicroBeta Trilux, PerkinElmer, Boston, Mass.).
Interleukin-18 and caspase-1 levels were detected by human ELISA kits (Sandwich ELISA, Bender Nedaystems, USA). […] TGF-β, TNF-α, IL-4, IFN-γ, IL-17 and IL-10 levels were detected by human ELISA kits from ebioscience (San Diego Calif., 92121 USA). […] BDNF was detected by the Human BDNF ELISA kit from Chemicon International (catalog #CYT306). […]

Glatiramer acetate [GA]
Mean ARR ([1]; GA-HR/NR, 24 mo Rx): 0.75 ± 0.50 | Mean EDSS ([1]; GA-HR/NR, 24 mo Rx): 3.2 ± 1.37 | Mean ARR ([1]; GA-HR/NR, Pre-Rx): 0.80 ± 0.49 | Mean EDSS ([1]; GA-HR/NR, Pre-Rx): 1.95 ± 0.95 | increase in the EDSS ([1]; GA-HR/NR, during treatment): 1.12 point | reduction in the ARR ([1]; GA-HR/NR, during treatment): 6.25% | Mean ARR ([1]; GA-R, 24 mo Rx): 0.14 ± 0.25 | Mean EDSS ([1]; GA-R, 24 mo Rx): 1.57 ± 1.0 | Mean ARR ([1]; GA-R, Pre-Rx): 0.67 ± 0.46 | Mean EDSS ([1]; GA-R, Pre-Rx): 2.18 ± 1.08 | decrease in the EDSS ([1]; GA-R, during treatment): 0.61 point | reduction in the ARR ([1]; GA-R, during treatment): 79% | Supernatant IL-18 levels, change during GA treatment (IL-18): did not show any significant changes from baseline

From patent publication US9687522B2, “Methods of treating a subject afflicted with an autoimmune disease using predictive biomarkers of clinical response to glatiramer acetate therapy in multiple sclerosis” (TEVA PHARMACEUTICAL INDUSTRIES, LTD., priority 2010, dated 2017)
